Source: patent US20070191395A1 (priority 2004, published 2007)
Converted amounts (≈) assume the structure as drawn.

What was measured:
Format in all cases: cell-based
[1] = system: Candida krusei ATCC 44507; test: Antifungal activity, growth inhibition (alamar Blue), Candida krusei; settings: for GI50, 50% growth inhibition concentration, Candida krusei ATCC 44507: GI50 versus drug non-addition growth
Protocol: (§1) Measuring method of the antifungal activities of the compounds of the present invention carried out in accordance with Japanese Journal of Medical Mycology, 40, 243-246, 1999, Japanese Society for Medical Mycology Standardization Committee, (alamar Blue), and the or 80% growth inhibition (GI50 or GI80) concentration (μg/ml) for drug non-addition growth as the positive control was measured.

[2] = system: Candida albicans ATCC MYA-573; test: Antifungal activity, growth inhibition (alamar Blue), Candida albicans; settings: GI50 versus drug non-addition growth
Protocol: as §1

[3] = system: Saccharomyces cerevisiae AY-14; test: Antifungal activity, growth inhibition (alamar Blue), Saccharomyces cerevisiae; settings: GI80 versus drug non-addition growth
Protocol: as §1

[4] = system: Candida glabrata ATCC 48435; test: Antifungal activity, growth inhibition (alamar Blue), Candida glabrata; settings: GI80 versus drug non-addition growth
Protocol: as §1

GI50, 50% growth inhibition concentration, Candida krusei ATCC 44507 [1] [µg/mL]	GI50, 50% growth inhibition concentration, Candida albicans ATCC MYA-573 [2] [µg/mL]	Compound	GI80, 80% growth inhibition concentration, Saccharomyces cerevisiae AY-14 [3] [µg/mL]	GI80, 80% growth inhibition concentration, Candida glabrata ATCC 48435 [4] [µg/mL]	GI50 ([1]; Pichia kudriavzevii, ATCC44507, GI50 versus drug non-addition growth, read-out: GI50, 50% growth inhibition concentration, Candida krusei ATCC 44507) [µg/mL]	GI50 ([2]; read-out: GI50, 50% growth inhibition concentration, Candida albicans ATCC MYA-573) [µg/mL]
>4	1 (≈ 2.58 µM)	Cc1c(-c2ccccc2)c(N2CC[C@H](N(C)C)C2)n2cc(C(C)C)nc2c1C#N [Example 8]	2 (≈ 5.16 µM)	0.125 (≈ 0.323 µM)		
>4	0.25 (≈ 0.623 µM)	Cc1c(-c2ccccc2)c(N2CC[C@H](N(C)C)C2)n2cc(C(C)(C)C)nc2c1C#N [Example 9, (3′S)-2-tert-Butyl-5-(3-dimethylaminopyrrolidin-1-yl)-7-methyl-6-phenylimidazo[1,2-a]pyridine-8-carbonitrile]	0.125 (≈ 0.311 µM)	0.25 (≈ 0.623 µM)		
>4	4 (≈ 9.94 µM)	Cc1c(-c2ccccc2)c(N2CC[C@H](N(C)C)C2)n2nc(C(C)(C)C)nc2c1C#N [Example 25]	0.063 (≈ 0.157 µM)	0.125 (≈ 0.311 µM)		

The remaining lines, values behind:

Compound	GI50, 50% growth inhibition concentration, Candida krusei ATCC 44507 [1] [µg/mL]	GI50, 50% growth inhibition concentration, Candida albicans ATCC MYA-573 [2] [µg/mL]	GI80, 80% growth inhibition concentration, Saccharomyces cerevisiae AY-14 [3] [µg/mL]	GI80, 80% growth inhibition concentration, Candida glabrata ATCC 48435 [4] [µg/mL]	GI50 ([1]; Pichia kudriavzevii, ATCC44507, GI50 versus drug non-addition growth, read-out: GI50, 50% growth inhibition concentration, Candida krusei ATCC 44507) [µg/mL]	GI50 ([2]; read-out: GI50, 50% growth inhibition concentration, Candida albicans ATCC MYA-573) [µg/mL]
C=C(C)c1nc2c(C#N)c(C)c(-c3ccccc3)c(N3CC[C@H](N(C)C)C3)n2n1 [Example 33]	4 (≈ 10.3 µM)	4 (≈ 10.3 µM)	0.004 (≈ 0.0103 µM)	0.008 (≈ 0.0207 µM)		
Cc1c(-c2ccccc2)c(N2CC[C@H](N(C)C)C2)n2nc(C(C)(C)COCc3ccccc3)nc2c1C#N [Example 39]	>4	0.5 (≈ 0.983 µM)	0.063 (≈ 0.124 µM)	0.25 (≈ 0.491 µM)		
Cc1c(-c2ccccc2)c(N2CC[C@H](N(C)C)C2)n2nc(C(C)(C)C)cc2c1C#N [Example 62]	4 (≈ 9.96 µM)	4 (≈ 9.96 µM)	2 (≈ 4.98 µM)	2 (≈ 4.98 µM)		
OC(Cn1cncn1)(Cn1cncn1)c1ccc(F)cc1F [Fluconazole, reference compound]			4 (≈ 13.1 µM)	4 (≈ 13.1 µM)	> 4	> 4
